{"source": "patent US4183954A", "about": "“Benzoic acid derivatives and therapeutic composition containing the same” (Seuref A.G., priority 1977, dated 1980)", "key": {"[1]": {"system": "oedema of the rat's paw induced by carageenin", "test": "Antiphlogistic activity, oedema of the rat's paw induced by carageenin", "assay_type": "in vivo"}, "[2]": {"system": "anaphylactic reaction and death induced in guinea-pigs sensitized with horse serum", "test": "Antianaphylactic activity", "assay_type": "in vivo", "description": "Administration to […] of the test compound at a dosage of 60 mg/kg by the oral route or of 50 mg/kg by the intraperitoneal route inhibits the anaphylactic reaction and the death induced in guinea-pigs sensitized with horse serum."}, "[3]": {"test": "Chronic toxicity test, 3 months", "assay_type": "in vivo, rats", "from_the_text": "The chronic toxicity tests confirmed the low toxicity of the product."}, "[4]": {"system": "experimental phlogistic reaction", "test": "Antiphlogistic activity, experimental phlogistic reaction", "assay_type": "in vivo", "conditions": "rats, intraperitoneal or oral, 50 mg/kg to 300 mg/kg", "description": "Intraperitoneal or oral administration of the test material at dosages within the range of from 50 mg/kg to 300 mg/kg inhibits the experimental phlogistic reaction induced in rats."}, "[5]": {"system": "hepatic steatosis and hypercholesterolemia induced by Handler's steatogenic diet", "test": "Anti-steatotic activity (Handler's steatogenic diet)", "assay_type": "in vivo", "conditions": "rats, 50 mg/kg daily", "description": "Administration of the test material to rats at a daily dosage of 50 mg/kg inhibits the hepatic steatosis and the hypercholesterolemia induced by Handler's steatogenic diet."}, "[6]": {"test": "Acute toxicity (LD50), method of Lichtfield and Wilcoxon, rats", "conditions": "rat, in vivo"}, "[7]": {"test": "Acute toxicity (LD50), method of Lichtfield and Wilcoxon, mice", "conditions": "mouse, in vivo"}, "choleresis": {"system": "choleresis", "test": "Choleretic activity", "assay_type": "in vivo", "conditions": "rats"}, "[8]": {"system": "hypercholesterolemia induced by Twin-Triton", "test": "Hypocholesterolemic activity (Twin-Triton-induced hypercholesterolemia)", "assay_type": "in vivo", "conditions": "rats, 200 mg/kg Twin-Triton i.p."}, "[9]": {"system": "oedema of the rat's paw induced by dextran", "test": "Antiphlogistic activity, oedema of the rat's paw induced by dextran", "assay_type": "in vivo"}, "[10]": {"system": "granulomatous reaction induced by the sub-cutaneous penetration of foreign bodies", "test": "Experimental granuloma test", "assay_type": "in vivo"}}}
{"smiles": "CC(C)(Oc1cccc2ccccc12)C(=O)Nc1ccc(C(=O)O)cc1", "note": "[Compound 1, p-[α-(α-naphthoxy)isobutyramido]benzoic acid]", "values": [{"measurement": "inhibition of paw oedema induced by carageenin", "setting": "[1]", "value": "inhibits"}, {"measurement": "inhibition of anaphylactic reaction and death", "setting": "[2]; 50 mg/kg intraperitoneal", "value": "inhibits"}, {"measurement": "inhibition of anaphylactic reaction and death", "setting": "[2]; 60 mg/kg oral", "value": "inhibits"}, {"measurement": "intolerance and toxicity", "setting": "[3]; 50 mg/kg, 3 months", "value": "did not induce any intolerance and any toxicity"}, {"measurement": "blood, glycemia, transaminases, urinary excretion and azotemia", "setting": "[3]; 50 mg/kg, 3 months, treated rats, beginning and end of treatment", "value": "failed to disclose any significant change or pathological modification"}, {"measurement": "chronic toxicity (overall)", "setting": "[3]; chronic toxicity tests", "value": "low toxicity"}, {"measurement": "inhibition of experimental phlogistic reaction", "setting": "[4]", "value": "inhibits"}, {"measurement": "inhibition of hepatic steatosis", "setting": "[5]", "value": "inhibits"}, {"measurement": "inhibition of hypercholesterolemia", "setting": "[5]", "value": "inhibits"}, {"measurement": "LD50", "setting": "[6]; ip, intraperitoneal", "value": 425, "unit": "mg/kg"}, {"measurement": "LD50", "setting": "[6]; oral", "value": 2200, "unit": "mg/kg"}, {"measurement": "LD50", "setting": "[7]; ip, intraperitoneal", "value": 395, "unit": "mg/kg"}, {"measurement": "LD50", "setting": "[7]; oral", "value": 2500, "unit": "mg/kg"}, {"measurement": "elimination of biliary pigments or cholesterol", "setting": "choleresis", "value": "increase concerns the elimination of either the biliary pigments or cholesterol"}, {"measurement": "choleresis", "setting": "choleresis; intraperitoneal, 20 mg/kg", "value": "significant increase of choleresis"}, {"measurement": "choleresis", "setting": "choleresis; oral, 100 mg/kg", "value": "significant increase of choleresis"}, {"measurement": "increase of the choleresis compared with dehydrocholic acid", "setting": "choleresis; versus dehydrocholic acid", "value": "more substantial and more extended than that induced by dehydrocholic acid"}, {"measurement": "inhibition of hypercholesterolemia", "setting": "[8]; 100 mg/kg intraperitoneal", "value": "inhibits"}, {"measurement": "inhibition of hypercholesterolemia", "setting": "[8]; 300 mg/kg oral", "value": "inhibits"}, {"measurement": "inhibition of paw oedema induced by dextran", "setting": "[9]", "value": "inhibits"}, {"measurement": "inhibition of granulomatous reaction", "setting": "[10]", "value": "inhibits"}]}
